These compounds were tested on Lolium perenne (LOLPE) (assay: Post-emergence herbicidal activity). Conditions: post-emergence application, 1000 g/Ha, evaluated after 13 days, scale 0-5; Table 7.
Format: in vivo
Description: (§1) B2 Post-Emergence Herbicidal Activity
(§2) Seeds of a variety of test species were sown in standard soil in pots: Triticum aestivium (TRZAW), Oryza sativa (ORYSA), Avena fatua (AVEFA), Alopecurus myosuroides (ALOMY), Echinochloa crus-galli (ECHCG), Lolium perenne (LOLPE), Zea Mays (ZEAMX), Abutilon theophrasti (ABUTH), Amaranthus retroflexus (AMARE) and Setaria faberi (SETFA). After 8 days cultivation (post-emergence) under controlled conditions in a glasshouse (at 24/16° C., day/night; 14 hours light; 65% humidity), the plants were sprayed with an aqueous spray solution derived from the formulation of the technical active ingredient in acetone/water (50:50) solution containing 0.5% Tween 20 (polyoxyethelyene sorbitan monolaurate, CAS RN 9005-64-5). The test plants were then grown in a glasshouse under controlled conditions (at 24/16° C., day/night; 14 hours light; 65% humidity) and watered twice daily. After 13 days, the test was evaluated (5=total damage to plant; 0=no damage to plant).

SMILES	Control of weed species, LOLPE (damage score)
Cc1nc(-c2cccnc2)sc1N(C)C(=S)SC(C)(C)C [Compound A23, tert-butyl N-methyl-N-[4-methyl-2-(3-pyridyl)thiazol-5-yl]carbamodithioate]	0
CN(C(=O)OC(C)(C)C)c1sc(-c2cccnc2)nc1Br [Compound A30, tert-butyl N-[4-bromo-2-(3-pyridyl)thiazol-5-yl]-N-methyl-carbamate]	4
Cc1nc(-c2cncc(C(N)=O)c2)sc1N(C)C(=O)OC(C)(C)C [Compound A8]	0
Cc1nc(-c2cncc(N)c2)sc1N(C)C(=O)OC(C)(C)C [Compound A11]	1
Cc1nc(-c2cccnc2)sc1N(C)C(=O)NC(C)(C)C [Compound A21, 3-tert-butyl-1-methyl-1-[4-methyl-2-(3-pyridyl)thiazol-5-yl]urea]	3

The compounds below were run on Triticum aestivium (TRZAW) (assay: Post-emergence herbicidal activity). Conditions: post-emergence application, 1000 g/Ha, evaluated after 13 days, scale 0-5.
Format: in vivo
Description: as §1, §2

SMILES	Control of weed species, TRZAW (damage score)
Cc1nc(-c2cccnc2)sc1N(C)C(=S)SC(C)(C)C [Compound A23, tert-butyl N-methyl-N-[4-methyl-2-(3-pyridyl)thiazol-5-yl]carbamodithioate]	0
CN(C(=O)OC(C)(C)C)c1sc(-c2cccnc2)nc1Br [Compound A30, tert-butyl N-[4-bromo-2-(3-pyridyl)thiazol-5-yl]-N-methyl-carbamate]	2
Cc1nc(-c2cncc(C(N)=O)c2)sc1N(C)C(=O)OC(C)(C)C [Compound A8]	2
Cc1nc(-c2cncc(N)c2)sc1N(C)C(=O)OC(C)(C)C [Compound A11]	2
Cc1nc(-c2cccnc2)sc1N(C)C(=O)NC(C)(C)C [Compound A21, 3-tert-butyl-1-methyl-1-[4-methyl-2-(3-pyridyl)thiazol-5-yl]urea]	1

What follows are compounds tested on Alopecurus myosuroides (ALOMY) (assay: Post-emergence herbicidal activity). Conditions: post-emergence application, 1000 g/Ha, evaluated after 13 days, scale 0-5.
Format: in vivo
Description: as §1, §2

SMILES	Control of weed species, ALOMY (damage score)
Cc1nc(-c2cccnc2)sc1N(C)C(=S)SC(C)(C)C [Compound A23, tert-butyl N-methyl-N-[4-methyl-2-(3-pyridyl)thiazol-5-yl]carbamodithioate]	0
CN(C(=O)OC(C)(C)C)c1sc(-c2cccnc2)nc1Br [Compound A30, tert-butyl N-[4-bromo-2-(3-pyridyl)thiazol-5-yl]-N-methyl-carbamate]	1
Cc1nc(-c2cncc(C(N)=O)c2)sc1N(C)C(=O)OC(C)(C)C [Compound A8]	1
Cc1nc(-c2cncc(N)c2)sc1N(C)C(=O)OC(C)(C)C [Compound A11]	1
Cc1nc(-c2cccnc2)sc1N(C)C(=O)NC(C)(C)C [Compound A21, 3-tert-butyl-1-methyl-1-[4-methyl-2-(3-pyridyl)thiazol-5-yl]urea]	2

These compounds were tested on Echinochloa crus-galli (ECHCG) (assay: Post-emergence herbicidal activity). Conditions: post-emergence application, 1000 g/Ha, evaluated after 13 days, scale 0-5; Table 7.
Format: in vivo
Description: as §1, §2

SMILES	Control of weed species, ECHCG (damage score)
Cc1nc(-c2cccnc2)sc1N(C)C(=S)SC(C)(C)C [Compound A23, tert-butyl N-methyl-N-[4-methyl-2-(3-pyridyl)thiazol-5-yl]carbamodithioate]	1
CN(C(=O)OC(C)(C)C)c1sc(-c2cccnc2)nc1Br [Compound A30, tert-butyl N-[4-bromo-2-(3-pyridyl)thiazol-5-yl]-N-methyl-carbamate]	5
Cc1nc(-c2cncc(C(N)=O)c2)sc1N(C)C(=O)OC(C)(C)C [Compound A8]	3
Cc1nc(-c2cncc(N)c2)sc1N(C)C(=O)OC(C)(C)C [Compound A11]	2
Cc1nc(-c2cccnc2)sc1N(C)C(=O)NC(C)(C)C [Compound A21, 3-tert-butyl-1-methyl-1-[4-methyl-2-(3-pyridyl)thiazol-5-yl]urea]	5

These compounds were tested on Avena fatua (AVEFA) (assay: Post-emergence herbicidal activity). Conditions: post-emergence application, 1000 g/Ha, evaluated after 13 days, scale 0-5.
Format: in vivo
Description: as §1, §2

SMILES	Control of weed species, AVEFA (damage score)
Cc1nc(-c2cccnc2)sc1N(C)C(=S)SC(C)(C)C [Compound A23, tert-butyl N-methyl-N-[4-methyl-2-(3-pyridyl)thiazol-5-yl]carbamodithioate]	1
CN(C(=O)OC(C)(C)C)c1sc(-c2cccnc2)nc1Br [Compound A30, tert-butyl N-[4-bromo-2-(3-pyridyl)thiazol-5-yl]-N-methyl-carbamate]	4
Cc1nc(-c2cncc(C(N)=O)c2)sc1N(C)C(=O)OC(C)(C)C [Compound A8]	2
Cc1nc(-c2cncc(N)c2)sc1N(C)C(=O)OC(C)(C)C [Compound A11]	1
Cc1nc(-c2cccnc2)sc1N(C)C(=O)NC(C)(C)C [Compound A21, 3-tert-butyl-1-methyl-1-[4-methyl-2-(3-pyridyl)thiazol-5-yl]urea]	4

Each compound was assayed on Oryza sativa (ORYSA) (assay: Post-emergence herbicidal activity). Conditions: post-emergence application, 1000 g/Ha, evaluated after 13 days, scale 0-5.
Format: in vivo
Description: as §1, §2

SMILES	Control of weed species, ORYSA (damage score)
Cc1nc(-c2cccnc2)sc1N(C)C(=S)SC(C)(C)C [Compound A23, tert-butyl N-methyl-N-[4-methyl-2-(3-pyridyl)thiazol-5-yl]carbamodithioate]	0
CN(C(=O)OC(C)(C)C)c1sc(-c2cccnc2)nc1Br [Compound A30, tert-butyl N-[4-bromo-2-(3-pyridyl)thiazol-5-yl]-N-methyl-carbamate]	1
Cc1nc(-c2cncc(C(N)=O)c2)sc1N(C)C(=O)OC(C)(C)C [Compound A8]	1
Cc1nc(-c2cncc(N)c2)sc1N(C)C(=O)OC(C)(C)C [Compound A11]	1
Cc1nc(-c2cccnc2)sc1N(C)C(=O)NC(C)(C)C [Compound A21, 3-tert-butyl-1-methyl-1-[4-methyl-2-(3-pyridyl)thiazol-5-yl]urea]	0

What follows are compounds tested on Lolium perenne (LOLPE) (assay: Pre-emergence herbicidal activity). Conditions: pre-emergence application, 1000 g/Ha, evaluated after 13 days, scale 0-5; Table 5.
Format: in vivo
Description: (§3) B1 Pre-Emergence Herbicidal Activity
as §2, with “After” for “After 8 days”, “for one day (pre-emergence)” for “(post-emergence)”

SMILES	Control of weed species, LOLPE (damage score)
Cc1nc(-c2cccnc2)sc1N(C)C(=S)SC(C)(C)C [Compound A23, tert-butyl N-methyl-N-[4-methyl-2-(3-pyridyl)thiazol-5-yl]carbamodithioate]	0
CN(C(=O)OC(C)(C)C)c1sc(-c2cccnc2)nc1Br [Compound A30, tert-butyl N-[4-bromo-2-(3-pyridyl)thiazol-5-yl]-N-methyl-carbamate]	2
Cc1nc(-c2cncc(C(N)=O)c2)sc1N(C)C(=O)OC(C)(C)C [Compound A8]	0
Cc1nc(-c2cncc(N)c2)sc1N(C)C(=O)OC(C)(C)C [Compound A11]	0
Cc1nc(-c2cccnc2)sc1N(C)C(=O)NC(C)(C)C [Compound A21, 3-tert-butyl-1-methyl-1-[4-methyl-2-(3-pyridyl)thiazol-5-yl]urea]	1

The compounds below were run on Triticum aestivium (TRZAW) (assay: Pre-emergence herbicidal activity). Conditions: pre-emergence application, 1000 g/Ha, evaluated after 13 days, scale 0-5.
Format: in vivo
Description: as §3
as §2, with “After” for “After 8 days”, “for one day (pre-emergence)” for “(post-emergence)”

SMILES	Control of weed species, TRZAW (damage score)
Cc1nc(-c2cccnc2)sc1N(C)C(=S)SC(C)(C)C [Compound A23, tert-butyl N-methyl-N-[4-methyl-2-(3-pyridyl)thiazol-5-yl]carbamodithioate]	0
CN(C(=O)OC(C)(C)C)c1sc(-c2cccnc2)nc1Br [Compound A30, tert-butyl N-[4-bromo-2-(3-pyridyl)thiazol-5-yl]-N-methyl-carbamate]	0
Cc1nc(-c2cncc(C(N)=O)c2)sc1N(C)C(=O)OC(C)(C)C [Compound A8]	0
Cc1nc(-c2cncc(N)c2)sc1N(C)C(=O)OC(C)(C)C [Compound A11]	2
Cc1nc(-c2cccnc2)sc1N(C)C(=O)NC(C)(C)C [Compound A21, 3-tert-butyl-1-methyl-1-[4-methyl-2-(3-pyridyl)thiazol-5-yl]urea]	0

Each compound was assayed on Alopecurus myosuroides (ALOMY) (assay: Pre-emergence herbicidal activity). Conditions: pre-emergence application, 1000 g/Ha, evaluated after 13 days, scale 0-5.
Format: in vivo
Description: as §3
as §2, with “After” for “After 8 days”, “for one day (pre-emergence)” for “(post-emergence)”

SMILES	Control of weed species, ALOMY (damage score)
Cc1nc(-c2cccnc2)sc1N(C)C(=S)SC(C)(C)C [Compound A23, tert-butyl N-methyl-N-[4-methyl-2-(3-pyridyl)thiazol-5-yl]carbamodithioate]	0
CN(C(=O)OC(C)(C)C)c1sc(-c2cccnc2)nc1Br [Compound A30, tert-butyl N-[4-bromo-2-(3-pyridyl)thiazol-5-yl]-N-methyl-carbamate]	1
Cc1nc(-c2cncc(C(N)=O)c2)sc1N(C)C(=O)OC(C)(C)C [Compound A8]	0
Cc1nc(-c2cncc(N)c2)sc1N(C)C(=O)OC(C)(C)C [Compound A11]	1
Cc1nc(-c2cccnc2)sc1N(C)C(=O)NC(C)(C)C [Compound A21, 3-tert-butyl-1-methyl-1-[4-methyl-2-(3-pyridyl)thiazol-5-yl]urea]	0

These compounds were tested on Echinochloa crus-galli (ECHCG) (assay: Pre-emergence herbicidal activity). Conditions: pre-emergence application, 1000 g/Ha, evaluated after 13 days, scale 0-5; Table 5.
Format: in vivo
Description: as §3
as §2, with “After” for “After 8 days”, “for one day (pre-emergence)” for “(post-emergence)”

SMILES	Control of weed species, ECHCG (damage score)
Cc1nc(-c2cccnc2)sc1N(C)C(=S)SC(C)(C)C [Compound A23, tert-butyl N-methyl-N-[4-methyl-2-(3-pyridyl)thiazol-5-yl]carbamodithioate]	0
CN(C(=O)OC(C)(C)C)c1sc(-c2cccnc2)nc1Br [Compound A30, tert-butyl N-[4-bromo-2-(3-pyridyl)thiazol-5-yl]-N-methyl-carbamate]	4
Cc1nc(-c2cncc(C(N)=O)c2)sc1N(C)C(=O)OC(C)(C)C [Compound A8]	0
Cc1nc(-c2cncc(N)c2)sc1N(C)C(=O)OC(C)(C)C [Compound A11]	2
Cc1nc(-c2cccnc2)sc1N(C)C(=O)NC(C)(C)C [Compound A21, 3-tert-butyl-1-methyl-1-[4-methyl-2-(3-pyridyl)thiazol-5-yl]urea]	5

The compounds below were run on Avena fatua (AVEFA) (assay: Pre-emergence herbicidal activity). Conditions: pre-emergence application, 1000 g/Ha, evaluated after 13 days, scale 0-5.
Format: in vivo
Description: as §3
as §2, with “After” for “After 8 days”, “for one day (pre-emergence)” for “(post-emergence)”

SMILES	Control of weed species, AVEFA (damage score)
Cc1nc(-c2cccnc2)sc1N(C)C(=S)SC(C)(C)C [Compound A23, tert-butyl N-methyl-N-[4-methyl-2-(3-pyridyl)thiazol-5-yl]carbamodithioate]	0
CN(C(=O)OC(C)(C)C)c1sc(-c2cccnc2)nc1Br [Compound A30, tert-butyl N-[4-bromo-2-(3-pyridyl)thiazol-5-yl]-N-methyl-carbamate]	3
Cc1nc(-c2cncc(C(N)=O)c2)sc1N(C)C(=O)OC(C)(C)C [Compound A8]	0
Cc1nc(-c2cncc(N)c2)sc1N(C)C(=O)OC(C)(C)C [Compound A11]	1
Cc1nc(-c2cccnc2)sc1N(C)C(=O)NC(C)(C)C [Compound A21, 3-tert-butyl-1-methyl-1-[4-methyl-2-(3-pyridyl)thiazol-5-yl]urea]	2

These compounds were tested on Oryza sativa (ORYSA) (assay: Pre-emergence herbicidal activity). Conditions: pre-emergence application, 1000 g/Ha, evaluated after 13 days, scale 0-5.
Format: in vivo
Description: as §3
as §2, with “After” for “After 8 days”, “for one day (pre-emergence)” for “(post-emergence)”

SMILES	Control of weed species, ORYSA (damage score)
Cc1nc(-c2cccnc2)sc1N(C)C(=S)SC(C)(C)C [Compound A23, tert-butyl N-methyl-N-[4-methyl-2-(3-pyridyl)thiazol-5-yl]carbamodithioate]	0
CN(C(=O)OC(C)(C)C)c1sc(-c2cccnc2)nc1Br [Compound A30, tert-butyl N-[4-bromo-2-(3-pyridyl)thiazol-5-yl]-N-methyl-carbamate]	1
Cc1nc(-c2cncc(C(N)=O)c2)sc1N(C)C(=O)OC(C)(C)C [Compound A8]	0
Cc1nc(-c2cncc(N)c2)sc1N(C)C(=O)OC(C)(C)C [Compound A11]	2
Cc1nc(-c2cccnc2)sc1N(C)C(=O)NC(C)(C)C [Compound A21, 3-tert-butyl-1-methyl-1-[4-methyl-2-(3-pyridyl)thiazol-5-yl]urea]	0
